Measurements taken from ChEMBL document CHEMBL6096707, “UBE2N: Hope on the Cancer Front, How to Inhibit This Promising Target Prospect?” (J Med Chem, 2025).

Columns and labels:
[1] = biological target: T1, Ubiquitin-conjugating enzyme E2 N (Homo sapiens, UniProt P61088); assay: Inhibition of UBE2N (unknown origin)
T1 sequence (P61088 whole entry): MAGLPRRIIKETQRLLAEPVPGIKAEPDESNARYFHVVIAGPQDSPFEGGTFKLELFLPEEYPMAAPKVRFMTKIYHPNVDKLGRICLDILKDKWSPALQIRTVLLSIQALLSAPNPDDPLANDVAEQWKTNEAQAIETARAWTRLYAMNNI

[2] = biological target: T1, Ubiquitin-conjugating enzyme E2 N; assay: Inhibition of UBE2N (unknown origin) by TR-FRET analysis
[3] = Inhibition of HDM2/p53 (unknown origin) protein-protein interaction; parameters: species or system Homo sapiens

IC50 [1] [nM]	IC50 [2] [nM]	IC50 [3] [µM]	SMILES
16000	–	–	COC(=O)c1cc2c(cn1)[nH]c1ccc(O)cc12
–	781	–	O=C(NCC1CCN(Cc2cccc(Cl)c2)CC1)[C@@H]1CCCN(c2ncnc3c2nc2n3CCCC2)C1

Continued, compound first:

SMILES	IC50 [1] [nM]	IC50 [2] [nM]	IC50 [3] [µM]
C=C1CC(C)(C)[C@@H](/C=C\[C@@H](C)[C@H]2CC[C@H]3[C@@H]4C[C@H](OS(=O)(=O)O)[C@H]5C[C@@H](O)CC[C@]5(C)[C@H]4CC[C@]23C)[C@H]1CC(O)[C@@H](C)[C@H]1CC[C@H]2[C@@H]3C[C@H](OS(=O)(=O)O)[C@H]4C[C@H](OS(=O)(=O)O)[C@@H](OS(=O)(=O)O)C[C@]4(C)[C@H]3CC[C@]12C (stereo partly specified)	130	–	–
C[C@@H](N)[C@@H](O)C/C=C\C/C=C\C/C=C\C/C=C\C/C=C\C/C=C\CCCCCC[C@H](O)[C@@H](C)N [LEUCETTAMOL A]	–	–	150
CC1=CC(C)(C)[C@@H](/C=C\[C@@H](C)[C@H]2CC[C@H]3[C@@H]4C[C@H](OS(=O)(=O)O)[C@H]5C[C@H](O)[C@@H](OS(=O)(=O)O)C[C@]5(C)[C@H]4CC[C@]23C)[C@H]1CC[C@@H](C)[C@H]1CC[C@H]2[C@@H]3C[C@H](OS(=O)(=O)O)[C@H]4C[C@H](OS(=O)(=O)O)[C@@H](OS(=O)(=O)O)C[C@]4(C)[C@H]3CC[C@]12C [MANADOSTEROL A]	90	–	160
